Laboratory results reported in patent US5561126A, “4-oxa-1-azabicyclo [3,2,0] heptan-7-one derivatives as antitumor agents” (Taiho Pharmaceutical Co., Ltd., priority 1992, dated 1996).
Values after ≈ are worked out from the molar mass of the structure shown.

Columns and labels:
KB cells = assay: In Vitro KB Cell Cytotoxicity Assay (crystal violet); type: cell-based; conditions: Homo sapiens, 72 h, read-out: Cytotoxicity TD50 KB
Protocol: KB cells were cultivated in Eagles minimum essential medium supplemented with 10% calf serum and incubated at 37° C. in a humidified 5% CO2 atmosphere to prepare a cell stock. Cells were counted using a neubauer hemocytometer and seeded in 96 well plates at 100 μl of 3×10^4 cells/ml and cultured for one day. […] Control wells were identical except that test compound was absent. These were cultured for three days. […] Then stained with 100 μl of 0.05% crystal violet for 15 minutes, washed with water and dried. The wells were eluted with 100 μl of 0.05M NaH2 PO4 /ethanol (1:1 v/v) and read at OD540 on a multiscan spectrophotometer. TD50 values were calculated using the following formula.

L1210 cells = assay: cells; type: cell-based; conditions: Mus musculus, L1210, 72 h, read-out: Cytotoxicity TD50 L1210
Protocol: In vitro L1210 cell cytotoxicity assay was done by the method of microculture tetrazolium assay (Alley et al., Cancer Research, 48, 589-601 (1988)). L1210 cells were cultivated in RPMI 1640 medium supplemented with 10% fetal calf serum and […] of 2-mercaptoethanol at 37° C. in humidified 5% CO2 atmosphere to prepare a cell stock. Cells were counted using neubauer hemocytometer and seed in 96 well plates at 100 μl of 0.5×10^4 cells per ml. The test compounds were diluted and 100 μl of the solution was added in triplicate wells to give the final concentration of 10, 5, 1, 0.5 and 0.1 μg/ml. Control wells were identical except that the test compound was absent. These were cultured for three days. Results were assayed using the microculture tetrazolium assay briefly. 50 μl of MTT formazoan working solution (1:5 v/v in culture medium) was added to each well and cultures were incubated at 37° C. for 4 hrs. Culture plates were centrifuged at low speed for 5 minutes. All but 10-20 μl of culture medium supernatant was removed by slow aspiration and replaced by 50 μl of DMSO. The formazoan was dissolved by shaking on a mechanical shaker and read at OD540 on a multiscan spectrophotometer. TD50 values were calculated using the formula: [formula] to give interpolative values between two dilutions.

Sarcoma 180 = assay: In Vivo Antitumor Activity Against Sarcoma 180; conditions: for Mortality in 12 days: i.p., days 1, 5 and 9
Protocol: Sarcoma 180, 5×10^6 cells were inoculated by S.C. to male ICR mice (6 weeks old) on day 0. Drugs were administered on days 1, 5 and 9. Mice were killed and tumor weight was measured on day 12 after transplantation. The percentage inhibition of tumor growth was calculated from the mean tumor weight of the treated group compared with that of the control group. Number of mice used in each group was between 6 to 10.

[1] = Mus musculus, Sarcoma-180, ip, 288 h, read-out: % Inhibition of tumor growth

For `O=COC[C@H]1CN2C(=O)C[C@@H]2O1` (racemic) [compound 3, (3RS, 5SR)-3-Formyloxymethyl-4-oxa-1-azabicyclo[3,2,0]heptan-7-one], the CC50 (KB cells) was 0.04 µg/mL (≈ 0.234 µM), the CC50 (L1210 cells) was 0.22 µg/mL (≈ 1.29 µM) and the “Mortality in 12 days” value (Sarcoma 180; 3.13 mg/kg/day) was 0/7. The “Mortality in 12 days” value (Sarcoma 180; 6.25 mg/kg/day) was 0/7, the inhibition in vivo at 3.13 mg/kg (Sarcoma 180; [1]) was 27.6% and the inhibition in vivo at 6.25 mg/kg (Sarcoma 180; [1]) was 55.3%.

For `CC(=O)OC[C@H]1CN2C(=O)C[C@@H]2O1` (racemic) [compound 4, (3RS, 5SR)-3-Acetoxymethyl-4-oxa-1-azabicyclo[3,2,0]heptan-7-one], the CC50 (KB cells) was 0.4 µg/mL (≈ 2.16 µM), the CC50 (L1210 cells) was 0.4 µg/mL (≈ 2.16 µM) and the “Mortality in 12 days” value (Sarcoma 180; 6.25 mg/kg/day) was 0/7. The “Mortality in 12 days” value (Sarcoma 180; 12.5 mg/kg/day) was 0/7, the inhibition in vivo at 6.25 mg/kg (Sarcoma 180; [1]) was 64% and the inhibition in vivo at 12.5 mg/kg (Sarcoma 180; [1]) was 70.7%.

In the case of `CCCCCC(=O)OC[C@H]1CN2C(=O)C[C@@H]2O1` (racemic) [compound 6, (3RS, 5SR)-3-Hexanoyloxymethyl-4-oxa-1-azabicyclo[3,2,0]heptan-7-one], the CC50 (KB cells) was 0.3 µg/mL (≈ 1.24 µM), the CC50 (L1210 cells) was 0.7 µg/mL (≈ 2.9 µM) and the “Mortality in 12 days” value (Sarcoma 180; 13 mg/kg/day) was 0/6. For the same compound, the “Mortality in 12 days” value (Sarcoma 180; 25 mg/kg/day) was 0/6, the “Mortality in 12 days” value (Sarcoma 180; 50 mg/kg/day) was 0/6 and the inhibition in vivo at 13 mg/kg (Sarcoma 180; [1]) was 36.4%. For the same compound, the inhibition in vivo at 25 mg/kg (Sarcoma 180; [1]) was 61.4% and the inhibition in vivo at 50 mg/kg (Sarcoma 180; [1]) was 78%.

Work on `CCCCCCCCCC(=O)OC[C@H]1CN2C(=O)C[C@@H]2O1` (racemic) [compound 8, (3RS, 5SR)-3-Decanoyloxymethyl-4-oxa-1-azabicyclo[3,2,0]heptan-7-one] yielded a CC50 (KB cells) of 0.3 µg/mL (≈ 1.01 µM) and a CC50 (L1210 cells) of 0.37 µg/mL (≈ 1.24 µM).

With `O=C(CCl)OC[C@H]1CN2C(=O)C[C@@H]2O1` (racemic) [compound 13, (3RS, 5SR)-3-Chloroacetoxymethyl-4-oxa-1-azabicyclo[3,2,0]heptan-7-one] the CC50 (KB cells) was 0.5 µg/mL (≈ 2.28 µM) and the CC50 (L1210 cells) was 0.28 µg/mL (≈ 1.27 µM).

For `C#CC(=O)OC[C@H]1CN2C(=O)C[C@@H]2O1` (racemic) [compound 16, (3RS, 5SR)-3-Propynoyloxymethyl-4-oxa-1-azabicyclo[3,2,0]heptan-7-one], the CC50 (KB cells) was 0.07 µg/mL (≈ 0.359 µM), the CC50 (L1210 cells) was 0.04 µg/mL (≈ 0.205 µM) and the “Mortality in 12 days” value (Sarcoma 180; 1.56 mg/kg/day) was 0/7. For the same compound, the “Mortality in 12 days” value (Sarcoma 180; 3.13 mg/kg/day) was 0/7, the inhibition in vivo at 1.56 mg/kg (Sarcoma 180; [1]) was 45.9% and the inhibition in vivo at 3.13 mg/kg (Sarcoma 180; [1]) was 53%.

In the case of `O=C1C[C@@H]2O[C@@H](C[S+]([O-])Cc3ccccc3)CN12` (mixture of isomers) [compound 42, (3RS,5SR)-3-Benzylsulfinylmethyl-4-oxa-1-azabicyclo[3,2,0]heptan-7-one], the CC50 (KB cells) was 0.1 µg/mL (≈ 0.377 µM), the CC50 (L1210 cells) was 0.3 µg/mL (≈ 1.13 µM) and the “Mortality in 12 days” value (Sarcoma 180; 50 mg/kg/day) was 0/7. For the same compound, the inhibition in vivo at 50 mg/kg (Sarcoma 180; [1]) was 64%.

For `O=C1C[C@@H]2O[C@@H](C[S+]([O-])c3ccccc3)CN12` (mixture of isomers) [compound 45, (3RS, 5SR)-3-Phenylsulfinylmethyl-4-oxa-1-azabicyclo [3,2,0]heptan-7-one], the CC50 (KB cells) was 0.3 µg/mL (≈ 1.19 µM) and the CC50 (L1210 cells) was 0.26 µg/mL (≈ 1.03 µM).

For `CC=CC=CC(=O)OC[C@H]1CN2C(=O)C[C@@H]2O1` (relative stereo) [compound 14, (3RS, 5SR)-3-(2,4-Hexadienoyloxyymethyl)-4-oxa-1-azabicyclo [3,2,0]heptan-7-one], the CC50 (KB cells) was 0.3 µg/mL (≈ 1.26 µM) and the CC50 (L1210 cells) was 0.65 µg/mL (≈ 2.74 µM).

`CCC=CCC=CCC=CCCCCCCCC(=O)OC[C@H]1CN2C(=O)C[C@@H]2O1` (relative stereo) [compound 15] was tested, and the CC50 (KB cells) was 0.41 µg/mL (≈ 1.02 µM) and the CC50 (L1210 cells) was 0.5 µg/mL (≈ 1.24 µM).

`O=C1C[C@@H]2O[C@@H](CO)CN12` [compound 40, (3R,5S)-3-Hydroxymethyl-4-oxa-1-azabicyclo[3,2,0]heptan-7-one] was tested, and the CC50 (KB cells) was 0.03 µg/mL (≈ 0.21 µM), the CC50 (L1210 cells) was 0.027 µg/mL (≈ 0.189 µM) and the “Mortality in 12 days” value (Sarcoma 180; 0.94 mg/kg/day) was 0/7. The “Mortality in 12 days” value (Sarcoma 180; 1.88 mg/kg/day) was 0/7, the “Mortality in 12 days” value (Sarcoma 180; 3.75 mg/kg/day) was 0/7 and the “Mortality in 12 days” value (Sarcoma 180; 7.5 mg/kg/day) was 0/7. For the same compound, the inhibition in vivo at 0.94 mg/kg (Sarcoma 180; [1]) was 56.1%, the inhibition in vivo at 1.88 mg/kg (Sarcoma 180; [1]) was 63.7% and the inhibition in vivo at 3.75 mg/kg (Sarcoma 180; [1]) was 69.1%. It also gave an inhibition in vivo at 7.5 mg/kg (Sarcoma 180; [1]) of 77.4%.
